Data taken from ChEMBL document CHEMBL4831544, “Discovery of IHMT-EZH2-115 as a Potent and Selective Enhancer of Zeste Homolog 2 (EZH2) Inhibitor for the Treatment of B-Cell Lymphomas” (J Med Chem, 2021).

Key:
[1] = Antiproliferative activity against human WSUDLCL2 cells assessed as inhibition of cell growth measured after 6 days by CellTiter-Glo luminescent assay; format: functional; details: WSUDLCL2, 144 h, time 6 day
[2] = Half life in rat at 1 mg/kg, iv; format: ADME, organism-based; details: in vivo
[3] = Clearance in rat at 10 mg/kg, po; format: ADME, organism-based; details: in vivo; for CL: 10 mg/kg
[4] = Apparent volume of distribution in rat at 10 mg/kg, po; format: ADME, organism-based; details: in vivo
[5] = Cmax in rat at 1 mg/kg, iv; format: ADME, organism-based; design: route intravenous, dose 1 mg/kg; details: in vivo
[6] = AUC (0 to infinity) in rat at 10 mg/kg, po; format: ADME, organism-based; design: time infinity, route oral, dose 10 mg/kg; details: in vivo
[7] = Clearance in rat at 1 mg/kg, iv; format: ADME, organism-based; details: in vivo
[8] = Half life in rat at 10 mg/kg, po; format: ADME, organism-based; details: in vivo
[9] = Apparent volume of distribution in rat at 1 mg/kg, iv; format: ADME, organism-based; details: in vivo; for Vd: read-out: Vz
[10] = AUC (0 to infinity) in rat at 1 mg/kg, iv; format: ADME, organism-based; design: route intravenous, time infinity, dose 1 mg/kg; details: in vivo
[11] = Cmax in rat at 10 mg/kg, po; format: ADME, organism-based; design: route oral, dose 10 mg/kg; details: in vivo
[12] = Oral bioavailability in rat at 10 mg/kg; format: ADME, organism-based; details: in vivo
KARPAS-422 [13] = assay: Antiproliferative activity against human KARPAS-422 cells harboring EZH2 Y641N mutant assessed as inhibition of cell growth measured after 6 days by CellTiter-Glo luminescent assay; format: functional; details: KARPAS-422, 144 h, time 6 day
KARPAS-422 [14] = assay: Antitumor activity against human KARPAS-422 cells harboring EZH2 Y641N mutant xenografted in NCG mouse assessed as change in tumor weight at 200 mg/kg, po BID via gavage measured after 28 days (reference value: 2.14 g); format: functional; details: time 28 day
KARPAS-422 [15] = assay: Antitumor activity against human KARPAS-422 cells harboring EZH2 Y641N mutant xenografted in NCG mouse assessed as tumor growth inhibition at 200 mg/kg, po BID via gavage measured after 28 days relative to control; format: functional; details: KARPAS-422, po, 672 h, time 28 day, read-out: TGI
Pfeiffer [16] = assay: Antitumor activity against human Pfeiffer cells harboring EZH2 A677G mutant xenografted in NCG mouse assessed as tumor growth inhibition at 200 mg/kg, po BID via gavage measured after 28 days relative to control; format: functional; details: 672 h, time 28 day, read-out: TGI
U2932 = assay: Antiproliferative activity against human U2932 cells expressing wild type EZH2 assessed as inhibition of cell growth measured after 6 days by CellTiter-Glo luminescent assay; format: functional; details: U2932, 144 h, time 6 day
[17] = Toxicity in NCG mouse xenografted with human KARPAS-422 cells harboring EZH2 Y641N mutant assessed as effect on body weight at 200 mg/kg, po BID via gavage measured after 28 days; format: organism-based; details: in vivo, 672 h, time 28 day
[18] = Toxicity in NCG mouse xenografted with human Pfeiffer cells harboring EZH2 A677G mutant assessed as effect on body weight at 200 mg/kg, po BID via gavage measured after 28 days; format: organism-based; details: in vivo, 672 h, time 28 day
SU-DHL-6 = assay: Antiproliferative activity against human SU-DHL-6 cells harboring EZH2 Y641N mutant assessed as inhibition of cell growth measured after 6 days by CellTiter-Glo luminescent assay; format: functional; details: SU-DHL-6, 144 h, time 6 day
SUD4 = assay: Antiproliferative activity against human SU-DHL-4 cells harboring EZH2 Y641S mutant assessed as inhibition of cell growth measured after 6 days by CellTiter-Glo luminescent assay; format: functional; details: SU-DHL-4, 144 h, time 6 day
Pfeiffer [19] = assay: Antiproliferative activity against human Pfeiffer cells harboring EZH2 A677G mutant assessed as inhibition of cell growth measured after 6 days by CellTiter-Glo luminescent assay; format: functional; details: 144 h, time 6 day
[20] = Antiproliferative activity against human WSUDLCL2 cells harboring EZH2 Y641F mutant assessed as inhibition of cell growth measured after 6 days by CellTiter-Glo luminescent assay; format: functional; details: WSUDLCL2, 144 h, time 6 day

CCN1CCN(c2ccc(-c3cc(C(=O)NCc4c(C)cc(C)[nH]c4=O)c(C)c(N(CC)C(=O)C4CC4)c3)cc2)CC1
GI50 [1]: 200 nM | half-life [2]: 93 min | CL [3]: 1805.68 mL/min/kg | Vz [4]: 470567 mL/kg | Cmax [5]: 444 ng/mL | AUC [6]: 242 ng·h/mL | clearance [7]: 69.9 mL/min/kg | half-life [8]: 125 min | Vd [9]: 9.32 L/kg | AUC(0-inf) [10]: 241 ng·h/mL | Cmax [11]: 115 ng/mL | bioavailability [12]: 13%

CCN(C(=O)C1CC1)c1cc(-c2ccc(N3CCNCC3)cc2)cc(C(=O)NCc2c(C)cc(C)[nH]c2=O)c1C
GI50 [1]: 200 nM

CCN(C(=O)c1ccccc1)c1cc(-c2ccc(CN3CCOCC3)cc2)cc(C(=O)NCc2c(C)cc(C)[nH]c2=O)c1C
GI50 [1]: 34700 nM

CCN(C(=O)C1CCCC1)c1cc(-c2ccc(CN3CCOCC3)cc2)cc(C(=O)NCc2c(C)cc(C)[nH]c2=O)c1C
GI50 [1]: 300 nM | half-life [2]: 22.8 min | CL/F [3]: 542 mL/min/kg | Vz [4]: 53401 mL/kg | Cmax [5]: 824 ng/mL | AUC(0-inf) [6]: 406 ng·h/mL | clearance [7]: 62.7 mL/min/kg | half-life [8]: 61.8 min | Vd [9]: 2.03 L/kg | AUC(0-inf) [10]: 269 ng·h/mL | Cmax [11]: 473 ng/mL | bioavailability [12]: 15.1%

CCN(C(=O)C1CCCCC1)c1cc(-c2ccc(CN3CCOCC3)cc2)cc(C(=O)NCc2c(C)cc(C)[nH]c2=O)c1C
GI50 [1]: 32400 nM

CCN(C(=O)C1CC1)c1cc(-c2ccc(N3CCOCC3)cc2)cc(C(=O)NCc2c(C)cc(C)[nH]c2=O)c1C
GI50 [1]: 200 nM

CCN(C(=O)C1CC1)c1cc(-c2ccc(NC(=O)C3CCOCC3)cc2)cc(C(=O)NCc2c(C)cc(C)[nH]c2=O)c1C
GI50 [1]: 700 nM

CCN(C(=O)C1CCOCC1)c1cc(-c2ccc(CN3CCOCC3)cc2)cc(C(=O)NCc2c(C)cc(C)[nH]c2=O)c1C
GI50 [1]: 16200 nM

CCN(C(=O)C1CC1)c1cc(-c2ccc(N3CCN(CC4CC4)CC3)nc2)cc(C(=O)NCc2c(C)cc(C)[nH]c2=O)c1C
GI50 [1]: 200 nM | half-life [2]: 75 min | CL/F [3]: 675 mL/min/kg | Vz [4]: 84455 mL/kg | Cmax [5]: 673 ng/mL | AUC(0-inf) [6]: 260 ng·h/mL | clearance [7]: 60.3 mL/min/kg | half-life [8]: 87.6 min | Vd [9]: 6.5 L/kg | AUC(0-inf) [10]: 277 ng·h/mL | Cmax [11]: 67 ng/mL | bioavailability [12]: 9.4%

CCN(C(=O)C1CCC1)c1cc(-c2ccc(CN3CCOCC3)cc2)cc(C(=O)NCc2c(C)cc(C)[nH]c2=O)c1C
GI50 [1]: 900 nM

Cc1cc(C)c(CNC(=O)c2cc(-c3ccc(CN4CCOCC4)cc3)cc3c2CCN3C(=O)C2CCOCC2)c(=O)[nH]1
GI50 [1]: 94500 nM

CCN(C(C)=O)c1cc(-c2ccc(CN3CCOCC3)cc2)cc(C(=O)NCc2c(C)cc(C)[nH]c2=O)c1C
GI50 [1]: 13000 nM

CCN(C(=O)C1CC1)c1cc(-c2ccc(N3CCN(CC4CC4)CC3)cc2)cc(C(=O)NCc2c(C)cc(C)[nH]c2=O)c1C
GI50 [1]: 100 nM

CCN(C(=O)C1CC1)c1cc(-c2ccc(N)cc2)cc(C(=O)NCc2c(C)cc(C)[nH]c2=O)c1C
GI50 [1]: 800 nM

CCN(C(=O)C1CC1)c1cc(-c2ccc(CN3CCOCC3)cc2)cc(C(=O)NCc2c(C)cc(C)[nH]c2=O)c1C
GI50 [1]: 200 nM | half-life [2]: 48 min | CL/F [3]: 1170 mL/min/kg | Vz [4]: 208585 mL/kg | Cmax [5]: 686 ng/mL | AUC(0-inf) [6]: 244 ng·h/mL | clearance [7]: 69.1 mL/min/kg | half-life [8]: 113 min | Vd [9]: 4.8 L/kg | AUC(0-inf) [10]: 242 ng·h/mL | Cmax [11]: 106 ng/mL | bioavailability [12]: 10.1%

Cc1cc(C)c(CNC(=O)c2cc(-c3ccc(CN4CCOCC4)cc3)cc3c2CCN3C(=O)C2CCCC2)c(=O)[nH]1
GI50 [1]: 44000 nM

CCN(C(=O)C1CC1)c1cc(-c2cnc(N3CCN(CC4CC4)CC3)cc2C)cc(C(=O)NCc2c(C)cc(C)[nH]c2=O)c1C
GI50 [1]: 200 nM

CC[C@H](C)n1cc(C)c2c(C(=O)NCc3c(C)cc(C)[nH]c3=O)cc(-c3ccc(N4CCNCC4)nc3)cc21 [GSK2816126]
GI50 [1]: 5000 nM

CCC(=O)N(CC)c1cc(-c2ccc(CN3CCOCC3)cc2)cc(C(=O)NCc2c(C)cc(C)[nH]c2=O)c1C
GI50 [1]: 900 nM

CCN(C(=O)C1CC1)c1cc(-c2cnc(N3CCN(CC4CC4)CC3)c(C)c2)cc(C(=O)NCc2c(C)cc(C)[nH]c2=O)c1C
GI50 [1]: 300 nM | t1/2 ([2]; 1 mg/kg): 1.79 h | CL [3]: 155.8 mL/min/kg | Vz [4]: 205232 mL/kg | Cmax [5]: 609 ng/mL | AUC [6]: 132 ng·h/mL | CL ([7]; 1 mg/kg): 60.87 mL/min/kg | t1/2 ([8]; 10 mg/kg): 1.82 h | Vz ([9]; 1 mg/kg): 79554 mL/kg | AUC(0-inf) [10]: 277 ng·h/mL | Cmax [11]: 42 ng/mL | bioavailability [12]: 4.8%

CCN(c1cc(-c2ccc(CN3CCOCC3)cc2)cc(C(=O)NCc2c(C)cc(C)[nH]c2=O)c1C)C1CCOCC1 [TAZEMETOSTAT]
GI50 [1]: 300 nM | GI50 (KARPAS-422 [13]): 90 nM | Activity (KARPAS-422 [14]): 0.23 g | inhibition in vivo at 200 mg/kg (KARPAS-422 [15]): 89.3% | inhibition in vivo at 200 mg/kg (Pfeiffer [16]): 100% | GI50 (U2932): > 10 µM | Activity [17]: Non-Toxic | Activity [18]: Non-Toxic | GI50 (SU-DHL-6): 1050 nM | GI50 (SUD4): 3.39 µM | GI50 (Pfeiffer [19]): 2 nM | GI50 [20]: 80 nM

CCN(C(=O)C1CC1)c1cc(-c2ccc(NC(=O)CCN(C)C)cc2)cc(C(=O)NCc2c(C)cc(C)[nH]c2=O)c1C
GI50 [1]: 1800 nM

Cc1cc(C)c(CNC(=O)c2cc(-c3ccc(CN4CCOCC4)cc3)cc3c2CCN3C(=O)c2ccco2)c(=O)[nH]1
GI50 [1]: 51600 nM

CCN(C(=O)C1CC1)c1cc(-c2ccc(NC(=O)c3cccnc3)cc2)cc(C(=O)NCc2c(C)cc(C)[nH]c2=O)c1C
GI50 [1]: 800 nM

CCN(C(=O)C1CC1)c1cc(-c2ccc(NC(=O)c3cccs3)cc2)cc(C(=O)NCc2c(C)cc(C)[nH]c2=O)c1C
GI50 [1]: 900 nM

CCN(C(=O)C(C)C)c1cc(-c2ccc(CN3CCOCC3)cc2)cc(C(=O)NCc2c(C)cc(C)[nH]c2=O)c1C
GI50 [1]: 500 nM

Cc1cc(C)c(CNC(=O)c2cc(-c3ccc(CN4CCOCC4)cc3)cc3c2CCN3C(=O)C2CC2)c(=O)[nH]1
GI50 [1]: 50500 nM
